Data from patent publication US8669228B2 (Indiana University Research and Technology Corporation, priority 2007, dated 2014).
Where no end group is shown, it is not given here.

Test: Glucagon solubility assay (UV absorbance of supernatant after pH adjustment)
Format: physicochemical
Conditions: for solubility relative to native glucagon: pH values of 5.5 and 7.0, after 60 hours at 25° C. (FIG. 3) or 24 hours at 25° C. then 24 hours at 4° C. (FIG. 4)

solubility relative to native glucagon	Molecule	Percent Soluble (pH 7)
superior solubility	CSCC[C@H](NC(=O)[C@H](CC(C)C)NC(=O)[C@H](Cc1c[nH]c2ccccc12)NC(=O)[C@H](CCC(N)=O)NC(=O)[C@@H](NC(=O)[C@H](Cc1ccccc1)NC(=O)[C@H](CC(=O)O)NC(=O)[C@H](CCC(N)=O)NC(=O)[C@H](C)NC(=O)[C@H](CCCNC(=N)N)NC(=O)[C@H](CCCNC(=N)N)NC(=O)[C@H](CO)NC(=O)[C@H](CC(=O)O)NC(=O)[C@H](CC(C)C)NC(=O)[C@H](Cc1ccc(O)cc1)NC(=O)[C@H](CCCCN)NC(=O)[C@H](CO)NC(=O)[C@H](Cc1ccc(O)cc1)NC(=O)[C@H](CC(=O)O)NC(=O)[C@H](CO)NC(=O)[C@@H](NC(=O)[C@H](Cc1ccccc1)NC(=O)[C@@H](NC(=O)CNC(=O)[C@H](CCC(N)=O)NC(=O)[C@H](CO)NC(=O)[C@@H](N)Cc1c[nH]cn1)[C@@H](C)O)[C@@H](C)O)C(C)C)C(=O)N[C@@H](CC(=O)O)C(=O)N[C@@H](CCC(=O)O)C(=O)O [D28, E29]	
	Glucagon, Cys17PEG5K: Glucagon Cys17 (1-29) reacted with methoxy poly(ethyleneglycol) maleimide avg. M.W. 5000	94%
superior solubility	HSQGTFTSDYSKYLESRRAQDFVQWLMDT [D28, E15]	
